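In this assay, cells in 96-well plates receive the compound at five concentrations for 48 hours. Endpoints are linearly interpolated between the surrounding concentrations. GI50 = concentration required for 50% inhibition of growth.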 Activity calls are given as the source filed them. Cut-off read from the data, not from the text of the source: active = GI50 up to about 1.1 µM and inactive = higher.
How the values were obtained:
Test in all cases: NCI tumour cell line growth inhibition, 48 h
ACHN = system: ACHN
NCI-H23 = system: NCI-H23
TK-10 = system: TK-10
HCT-116 = system: HCT-116
HCC 2998 = system: HCC 2998
786-0 = system: 786-0
CCRF-CEM = system: CCRF-CEM
SNB-19 = system: SNB-19
OVCAR-5 = system: OVCAR-5
HL-60 = system: HL-60
HOP-92 = system: HOP-92
OVCAR-8 = system: OVCAR-8
MDA-N = system: MDA-N
SF-268 = system: SF-268
LOX IMVI = system: LOX IMVI
SK-MEL-2 = system: SK-MEL-2
NCI-H460 = system: NCI-H460
A549 = system: A549
DU-145 = system: DU-145
DMS-114 = system: DMS-114

Measured: GI50

OC(CCN1CCN(CCOC(c2ccccc2)c2ccccc2)CC1)c1ccccc1 (configuration not stated)
inactive: ACHN 27 µM | NCI-H23 24.7 µM | TK-10 22.3 µM | HCT-116 17.5 µM | HCC 2998 14.8 µM | 786-0 18 µM | CCRF-CEM 27.7 µM | SNB-19 32.4 µM | OVCAR-5 33.2 µM | HL-60 16.7 µM | HOP-92 22.5 µM | OVCAR-8 17.7 µM | MDA-N 19.3 µM | SF-268 22.8 µM | LOX IMVI 19 µM | SK-MEL-2 15.8 µM | NCI-H460 18.6 µM | A549 44.6 µM | DU-145 39.7 µM

Oc1nc2cc(Cl)ccc2nc1/C(=N\Nc1ccccc1)C(O)c1ccc2c(c1)OCO2 (configuration not stated)
inactive: ACHN > 100 µM | NCI-H23 > 100 µM | TK-10 > 100 µM | HCT-116 > 100 µM | HCC 2998 > 100 µM | 786-0 > 100 µM | CCRF-CEM > 100 µM | SNB-19 > 100 µM | OVCAR-5 > 100 µM | HL-60 > 100 µM | HOP-92 > 100 µM | OVCAR-8 > 100 µM | MDA-N > 100 µM | SF-268 > 100 µM | LOX IMVI > 100 µM | SK-MEL-2 > 100 µM | NCI-H460 > 100 µM | A549 > 100 µM | DU-145 > 100 µM

CCc1c(Cl)c(C)cc(O)c1Cl
inactive: ACHN 22.1 µM | NCI-H23 34.8 µM | TK-10 > 100 µM | HCT-116 33.5 µM | HCC 2998 1.71 µM | 786-0 38.2 µM | CCRF-CEM 25.7 µM | SNB-19 38.7 µM | OVCAR-5 > 100 µM | HL-60 18.3 µM | HOP-92 23.2 µM | OVCAR-8 44.3 µM | MDA-N 19.4 µM | SF-268 53.8 µM | LOX IMVI 23.8 µM | SK-MEL-2 20.8 µM | NCI-H460 32.7 µM | A549 44.4 µM | DU-145 > 100 µM

O=C1OC(=O)C2CCCC3CCCC1C32 (configuration not stated)
inactive: ACHN > 100 µM | NCI-H23 > 100 µM | TK-10 > 100 µM | HCT-116 > 100 µM | HCC 2998 > 100 µM | 786-0 > 100 µM | CCRF-CEM > 100 µM | SNB-19 > 100 µM | OVCAR-5 > 100 µM | HL-60 > 100 µM | HOP-92 > 100 µM | OVCAR-8 > 100 µM | MDA-N > 100 µM | SF-268 > 100 µM | LOX IMVI > 100 µM | SK-MEL-2 > 100 µM | NCI-H460 > 100 µM | A549 > 100 µM | DU-145 > 100 µM

Cc1ccc(Nc2cccc3c2C(=O)c2cccc(Nc4ccc(C)cc4S(=O)(=O)O)c2C3=O)c(S(=O)(=O)O)c1
inactive: ACHN > 100 µM | TK-10 > 100 µM | HCT-116 > 100 µM | HCC 2998 > 100 µM | 786-0 > 100 µM | CCRF-CEM > 100 µM | SNB-19 > 100 µM | HL-60 > 100 µM | OVCAR-8 > 100 µM | SF-268 > 100 µM | DMS-114 > 100 µM | SK-MEL-2 > 100 µM | NCI-H460 > 100 µM | A549 > 100 µM

CC1C(=O)O[B-]2(c3ccccc3)Oc3ccccc3C=[N+]12 (configuration not stated)
inactive: ACHN > 100 µM | NCI-H23 > 100 µM | TK-10 > 100 µM | HCT-116 > 100 µM | HCC 2998 > 100 µM | 786-0 > 100 µM | CCRF-CEM > 100 µM | SNB-19 > 100 µM | OVCAR-5 > 100 µM | HL-60 96.4 µM | HOP-92 31.3 µM | OVCAR-8 > 100 µM | MDA-N > 100 µM | SF-268 > 100 µM | LOX IMVI > 100 µM | SK-MEL-2 > 100 µM | NCI-H460 > 100 µM | A549 > 100 µM | DU-145 > 100 µM

COc1cc(/C=C/C(=O)O)ccc1O [FERULATE]
inactive: ACHN > 100 µM | NCI-H23 > 100 µM | TK-10 > 100 µM | HCT-116 > 100 µM | HCC 2998 > 100 µM | 786-0 > 100 µM | CCRF-CEM > 100 µM | SNB-19 > 100 µM | OVCAR-5 > 100 µM | HL-60 > 100 µM | HOP-92 > 100 µM | OVCAR-8 > 100 µM | MDA-N > 100 µM | SF-268 > 100 µM | LOX IMVI > 100 µM | SK-MEL-2 > 100 µM | NCI-H460 > 100 µM | A549 > 100 µM | DU-145 > 100 µM

CC1(O)CCC(C(C)(C)O)CC1 (configuration not stated) [TERPIN]
inactive: ACHN > 100 µM | NCI-H23 > 100 µM | TK-10 > 100 µM | HCT-116 > 100 µM | HCC 2998 > 100 µM | 786-0 > 100 µM | CCRF-CEM > 100 µM | SNB-19 > 100 µM | OVCAR-5 > 100 µM | HL-60 > 100 µM | HOP-92 > 100 µM | OVCAR-8 > 100 µM | MDA-N > 100 µM | SF-268 > 100 µM | LOX IMVI > 100 µM | SK-MEL-2 > 100 µM | NCI-H460 > 100 µM | A549 > 100 µM | DU-145 > 100 µM
